{
  "source": "patent US10472347B2",
  "about": "“Aminopyrazine compounds with A2A antagonist properties” (Merck Sharp & Dohme Corp., priority 2014, dated 2019)",
  "molecular_target": "T1, human A2a receptor (Homo sapiens, UniProt P29274)",
  "T1 construct": "purchased Perkin-Elmer RBHA2AM400UA; host or cells: HEK293 cells (membranes)",
  "T1 sequence (P29274 whole entry)": "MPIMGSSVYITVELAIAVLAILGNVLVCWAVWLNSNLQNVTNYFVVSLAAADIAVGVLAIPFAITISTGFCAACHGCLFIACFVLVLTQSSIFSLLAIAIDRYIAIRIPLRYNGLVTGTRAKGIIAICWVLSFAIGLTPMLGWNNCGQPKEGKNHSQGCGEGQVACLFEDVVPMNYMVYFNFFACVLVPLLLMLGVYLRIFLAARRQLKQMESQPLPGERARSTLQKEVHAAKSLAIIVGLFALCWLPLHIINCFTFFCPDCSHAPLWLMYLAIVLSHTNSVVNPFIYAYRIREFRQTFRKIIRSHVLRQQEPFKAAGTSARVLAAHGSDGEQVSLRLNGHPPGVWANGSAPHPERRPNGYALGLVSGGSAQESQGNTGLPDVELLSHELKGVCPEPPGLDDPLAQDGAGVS",
  "assay": "A2a competition binding assay, Scintillation Proximity technology",
  "conditions": "membranes from HEK293 cells expressing human A2a receptor; for EC50: 0.5 nM tritiated ligand; for Ki: Ki by Cheng-Prusoff equation",
  "description": "Binding affinities of compounds of the invention for the human A2a receptor were determined in a competition binding assay using Scintillation Proximity technology. Thus, […] from HEK293 cells expressing the human A2a receptor were incubated with a compound of the invention at concentrations ranging from 3000 nM to 0.15 nM in a reaction mixture containing also 0.5 nM of a tritiated form of 5-amino-7-[2-phenethyl]-2-(furan-2-yl)-7H-pyrazolo[4,3-e][1,2,4]triazolo[1,5-c]pyrimidine (the tritiated compound) and 100 μg of wheat germ agglutin-coated yttrium silicate SPA beads for one hour at room temperature with agitation. The beads were then allowed to settle to the bottom of the wells for 1 hr, after which the membrane-associated radioactivity was determined by scintillation counting in a TopCount microplate reader. Ki values were determined using the Cheng-Prusoff equation.\nHEK293 cells expressing the human, rat, dog or monkey adenosine 2a receptor (Purchased from Perkin-Elmer # RBHA2AM400UA).\nThe Tritiated compound was prepared in-house by MRL Radiochemistry according to published methods.\nWheat germ agglutinin-coated yttrium silicate SPA beads (GE Healthcare #RPNQ0023). Dilute to 25 mg/ml in assay buffer.\nAssay Buffer was prepared in house: Dulbecco's calcium and magnesium free phosphate buffered saline+10 mM MgCl2\nAdenosine deaminase from calf intestine, 10 mg/2 ml (Roche #10 102 105 001).\nA2a antagonist standard (9-chloro-1-(2-furanyl)-[1,2,4]triazolo1,5-c]quinazolin-5-amine from Tocris Bioscience)\nMake eight 1:3 serial dilutions in 100% DMSO from a 3 mM compound stock\nTransfer 50 nl of compound into a 384-well OptiPlate (Perkin Elmer).\nTypically, final concentrations of compound used in the assay ranged from 3000 nM to 0.152 nM.\nDilute a solution of the Tritiated compound to 1.25 nM in assay buffer. This is a 2.5× solution. The final concentration in the assay is 0.5 nM. Calculate the concentration by counting two 5 μl aliquots.\nUse 0.25 ug of membrane/well. Dilute membranes to 9.7 μg/ml in assay buffer. Treat with 20 ug/ml adenosine deaminase (ADA) for 15 minutes at room temperature to degrade endogenous adenosine.\nUse 100 μg/well wheat germ agglutinin-coated yttrium silicate SPA beads.\nMix ADA-treated membranes and SPA beads together for 30 min prior to assay.\nTo the Perkin-Elmer Optiplate-384 containing the compound titration add 20 μl of 2.5× solution of the Tritiated compound and 30 μl of the membrane-bead mixture. Incubate for one hour at room temperature with agitation.\nInclude total binding (assay buffer+1% DMSO) and non-specific binding (CGS15943, 1 μM) wells.\nAllow the beads to settle for one hour.\nA curve fitting program (i.e., Prism, Activity Base, Chemcart) is used to determine the EC50. The Ki value is calculated using the Cheng-Prusoff equation. Ki=EC50/(1+(radioligand concentration/Kd))",
  "data": [
    {"smiles": "Cc1cccnc1CNC(=O)c1nc(C)c(-c2ncco2)nc1N", "note": "[Ex-3, 3-amino-6-methyl-N-((3-methylpyridin-2-yl)methyl)-5-(oxazol-2-yl)pyrazine-2-carboxamide]", "values": [
      {"measurement": "EC50", "value": 3.4, "unit": "nM"}
    ]},
    {"smiles": "Cc1nc(C(=O)NCc2ncccc2C2CC2)c(N)nc1-c1ncco1", "note": "[Ex-4, 3-amino-N-((3-cyclopropylpyridin-2-yl)methyl)-6-methyl-5-(oxazol-2-yl)pyrazine-2-carboxamide]", "values": [
      {"measurement": "EC50", "value": 4.6, "unit": "nM"}
    ]},
    {"smiles": "Cc1cccnc1CNC(=O)c1nc(C)c(-c2ncco2)nc1N", "note": "[Ex-5, 3-amino-6-methyl-N-[(3-methylpyridin-2-yl)methyl]-5-(1,3-oxazol-2-yl)pyrazine-2-carboxamide]", "values": [
      {"measurement": "EC50", "value": 4.7, "unit": "nM"},
      {"measurement": "Ki", "value": 0.199, "unit": "nM"}
    ]},
    {"smiles": "Cc1nc(C(=O)NCc2ncccc2C2CC2)c(N)nc1-c1ncco1", "note": "[Ex-6, 3-amino-N-[(3-cyclopropylpyridin-2-yl)methyl]-6-methyl-5-(1,3-oxazol-2-yl)pyrazine-2-carboxamide]", "values": [
      {"measurement": "EC50", "value": 5.9, "unit": "nM"},
      {"measurement": "Ki", "value": 0.224, "unit": "nM"}
    ]},
    {"smiles": "Cc1nc(C(=O)N[C@@H]2CCc3cccnc32)c(N)nc1-c1ncco1", "note": "[Ex-7A, (R)-3-amino-N-(6,7-dihydro-5H-cyclopenta[b]pyridin-7-yl)-6-methyl-5-(1,3-oxazol-2-yl)pyrazine-2-carboxamide]", "values": [
      {"measurement": "Ki", "value": 5.18, "unit": "nM"}
    ]},
    {"smiles": "Cc1nc(C(=O)N[C@H]2CCc3cccnc32)c(N)nc1-c1ncco1", "note": "[Ex-7B, (S)-3-amino-N-(6,7-dihydro-5H-cyclopenta[b]pyridin-7-yl)-6-methyl-5-(1,3-oxazol-2-yl)pyrazine-2-carboxamide]", "values": [
      {"measurement": "Ki", "value": 0.387, "unit": "nM"}
    ]},
    {"smiles": "Cc1nc(C(=O)NCc2cccc3cccnc23)c(N)nc1-c1ncco1", "note": "[Ex-9, 3-amino-6-methyl-5-(1,3-oxazol-2-yl)-N-(quinolin-8-ylmethyl)pyrazine-2-carboxamide]", "values": [
      {"measurement": "EC50", "value": 2.1, "unit": "nM"},
      {"measurement": "Ki", "value": 0.64, "unit": "nM"}
    ]},
    {"smiles": "Cc1cccc(CNC(=O)c2nc(C)c(-c3ncco3)nc2N)n1", "note": "[Ex-10, 3-amino-6-methyl-N-[(6-methylpyridin-2-yl)methyl]-5-(1,3-oxazol-2-yl)pyrazine-2-carboxamide]", "values": [
      {"measurement": "EC50", "value": 1.2, "unit": "nM"},
      {"measurement": "Ki", "value": 0.573, "unit": "nM"}
    ]},
    {"smiles": "Cc1nc(C(=O)NCc2c(F)cccc2F)c(N)nc1-c1ncco1", "note": "[Ex-11, 3-amino-N-(2,6-difluorobenzyl)-6-methyl-5-(1,3-oxazol-2-yl)pyrazine-2-carboxamide]", "values": [
      {"measurement": "Ki", "value": 0.125, "unit": "nM"}
    ]},
    {"smiles": "Cc1nc(C(=O)NCc2ccno2)c(N)nc1-c1ncco1", "note": "[Ex-12, 3-amino-N-(isoxazol-5-ylmethyl)-6-methyl-5-(1,3-oxazol-2-yl)pyrazine-2-carboxamide]", "values": [
      {"measurement": "Ki", "value": 9.82, "unit": "nM"}
    ]},
    {"smiles": "Cc1nc(C(=O)NCc2ncco2)c(N)nc1-c1ncco1", "note": "[Ex-13, 3-amino-6-methyl-5-(1,3-oxazol-2-yl)-N-(1,3-oxazol-2-ylmethyl)pyrazine-2-carboxamide]", "values": [
      {"measurement": "Ki", "value": 6.06, "unit": "nM"}
    ]},
    {"smiles": "Cc1c[nH]c(CNC(=O)c2nc(C)c(-c3ncco3)nc2N)n1", "note": "[Ex-14, 3-amino-6-methyl-N-[(4-methyl-1H-imidazol-2-yl)methyl]-5-(1,3-oxazol-2-yl)pyrazine-2-carboxamide]", "values": [
      {"measurement": "Ki", "value": 2.12, "unit": "nM"}
    ]},
    {"smiles": "Cc1nc(C(=O)NCc2nccn2C)c(N)nc1-c1ncco1", "note": "[Ex-15, 3-amino-6-methyl-N-[(1-methyl-1H-imidazol-2-yl)methyl]-5-(1,3-oxazol-2-yl)pyrazine-2-carboxamide]", "values": [
      {"measurement": "Ki", "value": 1.25, "unit": "nM"}
    ]},
    {"smiles": "Cc1nc(C(=O)NCc2ncc[nH]2)c(N)nc1-c1ncco1", "note": "[Ex-16, 3-amino-N-(1H-imidazol-2-ylmethyl)-6-methyl-5-(1,3-oxazol-2-yl)pyrazine-2-carboxamide]", "values": [
      {"measurement": "Ki", "value": 5.14, "unit": "nM"}
    ]},
    {"smiles": "Cc1nc(C(=O)NCc2cncs2)c(N)nc1-c1ncco1", "note": "[Ex-17, 3-amino-6-methyl-5-(1,3-oxazol-2-yl)-N-(1,3-thiazol-5-ylmethyl)pyrazine-2-carboxamide]", "values": [
      {"measurement": "Ki", "value": 17.3, "unit": "nM"}
    ]},
    {"smiles": "Cc1nc(C(=O)NCc2ncccc2C(F)(F)F)c(N)nc1-c1ncco1", "note": "[Ex-18, 3-amino-6-methyl-5-(1,3-oxazol-2-yl)-N-{[3-(trifluoromethyl)pyridin-2-yl]methyl}pyrazin-2-carboxamide]", "values": [
      {"measurement": "Ki", "value": 0.151, "unit": "nM"}
    ]},
    {"smiles": "Cc1nc(C(=O)NCc2ncccn2)c(N)nc1-c1ncco1", "note": "[Ex-19, 3-amino-6-methyl-5-(1,3-oxazol-2-yl)-N-(pyrimidin-2-ylmethyl)pyrazine-2-carboxamide]", "values": [
      {"measurement": "Ki", "value": 2.76, "unit": "nM"}
    ]},
    {"smiles": "Cc1nc(C(=O)NCc2ncccc2F)c(N)nc1-c1ncco1", "note": "[Ex-20, 3-amino-N-[(3-fluoropyridin-2-yl)methyl]-6-methyl-5-(1,3-oxazol-2-yl)pyrazine-2-carboxamide]", "values": [
      {"measurement": "Ki", "value": 0.365, "unit": "nM"}
    ]},
    {"smiles": "Cc1nc(C(=O)NCc2cccc(N(C)C)n2)c(N)nc1-c1ncco1", "note": "[Ex-21, 3-amino-N-{[6-(dimethylamino)pyridin-2-yl]methyl}-6-methyl-5-(1,3-oxazol-2-yl)pyrazine-2-carboxamide]", "values": [
      {"measurement": "Ki", "value": 0.934, "unit": "nM"}
    ]},
    {"smiles": "COc1cccc(CNC(=O)c2nc(C)c(-c3ncco3)nc2N)n1", "note": "[Ex-22, 3-amino-N-[(6-methoxypyridin-2-yl)methyl]-6-methyl-5-(1,3-oxazol-2-yl)pyrazine-2-carboxamide]", "values": [
      {"measurement": "Ki", "value": 0.919, "unit": "nM"}
    ]},
    {"smiles": "Cc1nc(C(=O)NCc2cccc3ccncc23)c(N)nc1-c1ncco1", "note": "[Ex-23, 3-amino-N-(isoquinolin-8-ylmethyl)-6-methyl-5-(1,3-oxazol-2-yl)pyrazine-2-carboxamide]", "values": [
      {"measurement": "Ki", "value": 0.293, "unit": "nM"}
    ]},
    {"smiles": "Cc1nc(C(=O)N2CCCc3ccccc32)c(N)nc1-c1ncco1", "note": "[Ex-24]", "values": [
      {"measurement": "Ki", "value": 78.5, "unit": "nM"}
    ]},
    {"smiles": "Cc1nc(C(=O)NCCc2ccccn2)c(N)nc1-c1ncco1", "note": "[Ex-25, 3-amino-6-methyl-5-(1,3-oxazol-2-yl)-N-(2-pyridin-2-ylethyl)pyrazine-2-carboxamide]", "values": [
      {"measurement": "Ki", "value": 16.2, "unit": "nM"}
    ]},
    {"smiles": "Cc1nc(C(=O)NCc2ccn(C)n2)c(N)nc1-c1ncco1", "note": "[Ex-26, 3-amino-6-methyl-N-[(1-methyl-1H-pyrazol-3-yl)methyl]-5-(1,3-oxazol-2-yl)pyrazine-2-carboxamide]", "values": [
      {"measurement": "Ki", "value": 1.71, "unit": "nM"}
    ]},
    {"smiles": "Cc1nc(C(=O)NCc2ccncc2)c(N)nc1-c1ncco1", "note": "[Ex-27, 3-amino-6-methyl-5-(1,3-oxazol-2-yl)-N-(pyridin-4-ylmethyl)pyrazine-2-carboxamide]", "values": [
      {"measurement": "Ki", "value": 120, "unit": "nM"}
    ]},
    {"smiles": "Cc1nc(C(=O)NCc2cccnc2)c(N)nc1-c1ncco1", "note": "[Ex-28, 3-amino-6-methyl-5-(1,3-oxazol-2-yl)-N-(pyridin-3-ylmethyl)pyrazine-2-carboxamide]", "values": [
      {"measurement": "Ki", "value": 14.5, "unit": "nM"}
    ]},
    {"smiles": "Cc1nc(C(=O)NCc2cc3ccccc3cn2)c(N)nc1-c1ncco1", "note": "[Ex-29, 3-amino-N-(isoquinolin-3-ylmethyl)-6-methyl-5-(1,3-oxazol-2-yl)pyrazine-2-carboxamide]", "values": [
      {"measurement": "Ki", "value": 0.336, "unit": "nM"}
    ]},
    {"smiles": "Cc1nc(C(=O)NCc2ccccc2F)c(N)nc1-c1ncco1", "note": "[Ex-30, 3-amino-N-(2-fluorobenzyl)-6-methyl-5-(1,3-oxazol-2-yl)pyrazine-2-carboxamide]", "values": [
      {"measurement": "Ki", "value": 0.314, "unit": "nM"}
    ]},
    {"smiles": "Cc1nc(C(=O)NCc2cccc(F)c2)c(N)nc1-c1ncco1", "note": "[Ex-31, 3-amino-N-(3-fluorobenzyl)-6-methyl-5-(1,3-oxazol-2-yl)pyrazine-2-carboxamide]", "values": [
      {"measurement": "Ki", "value": 0.737, "unit": "nM"}
    ]},
    {"smiles": "Cc1nc(C(=O)NCc2ccc(F)cc2)c(N)nc1-c1ncco1", "note": "[Ex-32, 3-amino-N-(4-fluorobenzyl)-6-methyl-5-(1,3-oxazol-2-yl)pyrazine-2-carboxamide]", "values": [
      {"measurement": "Ki", "value": 1.5, "unit": "nM"}
    ]},
    {"smiles": "Cc1nc(C(=O)NCc2ccc3ccccc3n2)c(N)nc1-c1ncco1", "note": "[Ex-33, 3-amino-6-methyl-5-(1,3-oxazol-2-yl)-N-(quinolin-2-ylmethyl)pyrazine-2-carboxamide]", "values": [
      {"measurement": "Ki", "value": 2.8, "unit": "nM"}
    ]},
    {"smiles": "Cc1nc(C(=O)N2CCCC(F)(F)C2)c(N)nc1-c1ncco1", "note": "[Ex-34, 3-[(3,3-difluoropiperidin-1-yl)carbonyl]-5-methyl-6-(1,3-oxazol-2-yl)pyrazin-2-amine]", "values": [
      {"measurement": "Ki", "value": 847, "unit": "nM"}
    ]}
  ]
}
